These results are taken from article PMC12273560, “A versatile fluorescence polarization-based deubiquitination assay using an isopeptide bond substrate mimetic (IsoMim)” (The Journal of Biological Chemistry, 2025).

One assay concerns the target T1, USP2 (Homo sapiens, UniProt O75604).
T1 construct: expressed in E. coli BL21(DE3)-RIL, nickel column purification
T1 sequence (O75604 250-605): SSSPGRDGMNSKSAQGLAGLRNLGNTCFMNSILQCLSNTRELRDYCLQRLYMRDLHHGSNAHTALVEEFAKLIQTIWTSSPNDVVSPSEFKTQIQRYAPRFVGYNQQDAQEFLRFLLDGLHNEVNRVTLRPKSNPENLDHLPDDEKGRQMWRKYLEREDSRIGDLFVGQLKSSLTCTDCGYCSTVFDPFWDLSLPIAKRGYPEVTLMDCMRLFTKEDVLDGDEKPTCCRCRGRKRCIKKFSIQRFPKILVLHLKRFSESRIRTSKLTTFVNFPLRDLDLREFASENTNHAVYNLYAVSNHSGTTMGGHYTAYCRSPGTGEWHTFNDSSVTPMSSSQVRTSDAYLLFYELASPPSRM
Kind of assay: fluorescence polarization deubiquitination assay (IsoMim). It is filed as biochemical.

The target of another assay is T2, UCHL3 (Homo sapiens, UniProt P15374).
T2 construct: expressed in E. coli BL21(DE3)-RIL, nickel column purification
T2 sequence (P15374 1-230): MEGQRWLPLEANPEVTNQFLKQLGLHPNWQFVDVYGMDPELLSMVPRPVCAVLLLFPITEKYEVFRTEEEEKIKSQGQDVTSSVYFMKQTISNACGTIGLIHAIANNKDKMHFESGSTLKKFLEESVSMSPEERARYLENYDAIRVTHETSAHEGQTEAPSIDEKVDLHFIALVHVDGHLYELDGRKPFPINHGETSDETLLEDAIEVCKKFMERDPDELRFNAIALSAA
The description is as above. It is filed as biochemical.

As a reminder, the IC50 is the concentration needed to halve the response being measured. `N#CSc1cc(SC#N)c(N)nc1N` [PR-619]: the results for the IC50 at USP2 and against UCHL3 were 1070 nM and 4680 nM, respectively.
